Measurements: patent publication EP0256909B1, “N,N-bis-(4-fluorophenyl) carbamoyl acetohydroxamic acid and pharmaceutical composition containing it” (priority 1986, dated 1988)

Key:
[1] = test system: souris; assay: Behavioural despair (forced immersion); assay type: in vivo; settings: 32, 128, 512 mg/kg i.p., 2nd to 6th minute
From the text: Trente min après avoir reçu le CRL 41131, des lots de 6 souris (mâles, CD1, Charles River) sont placés dans un bécher rempli d'eau sur une hauteur de 6 cm. On note la durée totale d'immobilité entre la deuxième et la sixième minute suivant l'immersion.

[2] = test system: souris; assay: in vivo; settings: 24 h after administration
Procedure: (§1) Le CRL 41131, en suspension dans une solution de gomme arabique à 5%, a été administré par voie intrapéritonéale sous un volume de 20 ml/kg chez la souris (mâle, NMRI, Evic Ceba) et de 5 ml/kg chez le rat (mâle, CD1, Sprague Dawley, Charles River).
(§2) Aussitôt après l'administration de CRL 41131, les souris groupées par lots de 10 sont placées dans des boîtes en Plexiglass (20 x 10 x 10 cm).
(§3) On note le nombre d'animaux morts, toutes les heures pendant 4 h et après 24, 48 et 72 h.
(§4) La toxicité du CRL 41131 est déterminée dans les mêmes conditions sur des lots de souris placées à raison d'une par boîte.

[3] = in vivo; settings: mouse, in vivo, ip; for LD50 at 48 h: 48 h after administration; for LD50 at 72 h: 72 h after administration; for LD50 at 24 h: dose létale 50% (DL50), 24 h after administration; for selectivity ratio: rapport, LD50 ratio isolated/grouped mice (formula not readable)
Procedure: as §1, §2, §3, §4

In the case of `O=C(CC(=O)N(c1ccc(F)cc1)c1ccc(F)cc1)NO` [CRL 41131, acide N,N-bis-(4-fluorophényl) carbamoylacétohydroxamique], the “durée de l'immobilité” value [1] was “diminue la durée de l'immobilité”, the “toxicité chez les souris groupées par rapport aux souris isolées” value [2] was “modérément plus toxique chez les souris groupées” and the LD50 at 48 h ([3]; DL50, grouped mice) was about 480 mg/kg. For the same compound, the LD50 at 72 h ([3]; DL50, grouped mice) was about 370 mg/kg, the LD50 at 48 h ([3]; DL50, isolated mice) was about 300 mg/kg and the LD50 at 72 h ([3]; DL50, isolated mice) was about 1100 mg/kg. It also gave an LD50 at 24 h ([3]; grouped mice) of about 700 mg/kg, an LD50 at 24 h ([3]; isolated mice) of about 500 mg/kg and a selectivity ratio ([3]; 48 h) of 2.7. It also gave a selectivity ratio ([3]; 72 h) of 2.97.
